# From patent publication US20140031227A1, “HERBICIDAL COMPOSITIONS COMPRISING 4-AMINO-3-CHLORO-5-FLUORO-6-(4-CHLORO-2-FLUORO-3-METHOXYPHENYL) PYRIDINE-2-CARBOXYLIC ACID OR A DERIVATIVE THEREOF AND GLYPHOSATE OR GLUFOSINATE” (DOW AGROSCIENCES LLC, priority 2012, published 2014)
# Where a name gives a salt, the structure may show the parent alone.
# Tests used:
# Format in all cases: in vivo
# [1] = system: ECHCO (Echinochloa colona (L.) Link, junglerice); assay: Example I postemergence foliar-applied mixtures, direct seeded rice weeds, greenhouse: ECHCO
# Procedure: (§1) Seeds or nutlets of the desired test plant species were planted in a soil matrix prepared by mixing a loam or sandy loam soil (e.g., 28.6 percent silt, 18.8 percent clay, and 52.6 percent sand, with a pH of about 5.8 and an organic matter content of about 1.8 percent) and calcareous grit in an 80 to 20 ratio. The soil matrix was contained in plastic pots with a volume of 1 quart and a surface area of 83.6 square centimeters (cm^2). […] The plants were grown for 8-22 days in a greenhouse with an approximate 14 hr photoperiod which was maintained at about 29° C. during the day and 26° C. during the night. Nutrients (Peters Excel® 15-5-15 5-Ca 2-Mg and iron chelate) were applied in the irrigation solution as needed and water was added on a regular basis. Supplemental lighting was provided with overhead metal halide 1000-Watt lamps as necessary. The plants were employed for testing when they reached the first through fourth true leaf stage.
# (§2) Treatments consisted of the acid or esters of 4-amino-3-chloro-5-fluoro-6-(4-chloro-2-fluoro-3-methoxy-phenyl)pyridine-2-carboxylic acid (Compound A), each formulated as an SC (suspension concentrate), and various herbicidal components alone and in combination. Forms of compound A were applied on an acid equivalent basis.
# (§3) For treatments comprised of formulated compounds, measured amounts of compounds were placed individually in 25 mL glass vials and diluted in a volume of 1.25% (v/v) Agri-Dex® crop oil concentrated to obtain 12× stock solutions. […] Application solutions were prepared by adding an appropriate amount of each stock solution (e.g., 1 mL) and diluted to the appropriate final concentrations with the addition of 10 mL of an aqueous mixture of 1.25% (v/v) crop oil concentrate so that the final spray solutions contained 1.25+/−0.05% (v/v) crop oil concentrate.
# (§4) All stock solutions and applications solutions were visually inspected for compound compatibility prior to application. Spray solutions were applied to the plant material with an overhead Mandel track sprayer equipped with a 8002E nozzles calibrated to deliver 187 L/ha over an application area of 0.503 m^2 at a spray height of 18 to 20 inches (46 to 50 cm) above average plant canopy height. Control plants were sprayed in the same manner with the solvent blank.
# (§5) The treated plants and control plants were placed in a greenhouse as described above and watered by sub-irrigation to prevent wash-off of the test compounds. After approximately 3 weeks, the condition of the test plants as compared with that of the untreated plants was determined visually and scored on a scale of 0 to 100 percent where 0 corresponds to no injury or growth inhibition and 100 corresponds to complete kill.
# (§6) Colby's equation was used to determine the herbicidal effects expected from the mixtures (Colby, S. R. 1967. Calculation of the synergistic and antagonistic response of herbicide combinations. Weeds 15:20-22.).
# [2] = system: ECHCG (Echinochloa crusgalli (L.) Beauv., barnyardgrass); assay: Example I postemergence foliar-applied mixtures, direct seeded rice weeds, greenhouse: ECHCG; conditions: for Visual Weed Control (%) - 21 DAA ECHCG Obs: glyphosate IPA salt (Glyphomax) alone
# Procedure: as §1, §2, §3, §4, §5, §6
# [3] = system: SCPMA (Schoenoplectus maritimus (L.) Lye or Bolboschoenus maritimus (L.) Palla, sea clubrush); assay: Example II in-water applied mixtures, transplanted paddy rice weeds, greenhouse: SCPMA; conditions: glyphosate IPA salt (Rodeo) alone
# Procedure: Weed seeds or nutlets of the desired test plant species were planted in puddled soil (mud) prepared by mixing a shredded, non-sterilized mineral soil (50.5 percent silt, 25.5 percent clay, and 24 percent sand, with a pH of about 7.6 and an organic matter content of about 2.9 percent) and water at a 1:1 volumetric ratio. The prepared mud was dispensed in 365 mL aliquots into 16-ounce (oz.) non-perforated plastic pots with a surface area of 86.59 square centimeters (cm^2) leaving a headspace of 3 centimeters (cm) in each pot. Mud was allowed to dry overnight prior to planting or transplanting. Rice seeds were planted in Sun Gro MetroMix® 306 planting mixture, which typically has a pH of 6.0 to 6.8 and an organic matter content of about 30 percent, in plastic plug trays. Seedlings at the second or third leaf stage of growth were transplanted into 840 mL of mud contained in 32-oz. non-perforated plastic pots with a surface area of 86.59 cm^2 4 days prior to herbicide application. The paddy was created by filling the headspace of the pots with 2.5 to 3 cm of water. […] The plants were grown for 4-22 days in a greenhouse with an approximate 14 hr photoperiod which was maintained at about 29′C during the day and 26° C. during the night. Nutrients were added as Osmocote® (19:6:12, N:P:K+minor nutrients) at 2 g per 16-oz. pot and 4 g per 32-oz. pot. Water was added on a regular basis to maintain the paddy flood, and supplemental lighting was provided with overhead metal halide 1000-Watt lamps as necessary. The plants were employed for testing when they reached the first through fourth true leaf stage.
# as §2, with “(compound A)” for “(Compound A),”, “concentrate)” for “concentrate),”
# For formulated compounds, a measured amount was placed in an individual 100 or 200 mL glass vial and was dissolved in a volume of 1.25% (v/v) Agri-Dex® crop oil concentrate to obtain application solutions.
# Applications were made by injecting with a pipetter appropriate amounts of the application solutions, individually and sequentially, into the aqueous layer of the paddy. Control plants were treated in the same manner with the solvent blank. Applications were made so that all treated plant material received the same concentrations of acetone and crop oil concentrate.
# as §5, with “water was added as needed” for “watered by sub-irrigation”, “maintain a paddy flood.” for “prevent wash-off of the test compounds.”, “weeks” for “weeks,”
# as §6
# [4] = system: DIGSA (Digitaria sanguinalis (L.) Scop., large crabgrass); assay: Example I postemergence foliar-applied mixtures, direct seeded rice weeds, greenhouse: DIGSA; conditions: glyphosate IPA salt (Durango) alone, 377 gae/ha
# Procedure: as §1, §2, §3, §4, §5, §6
# [5] = system: LEFCH (Leptochloa chinensis (L.) Nees, Chinese sprangletop); assay: Example I postemergence foliar-applied mixtures, direct seeded rice weeds, greenhouse: LEFCH
# Procedure: as §1, §2, §3, §4, §5, §6
# [6] = system: IPOHE (Ipomoea hederacea Jacq., ivyleaf morningglory); assay: Example I postemergence foliar-applied mixtures, direct seeded rice weeds, greenhouse: IPOHE; conditions: glyphosate IPA salt (Rodeo) alone
# Procedure: as §1, §2, §3, §4, §5, §6
# [7] = glyphosate IPA salt (Glyphomax) alone, 124.5 gae/ha
# [8] = glyphosate IPA salt (Glyphomax) alone, 249 gae/ha
# [9] = glyphosate IPA salt (Rodeo) alone, 105 gae/ha
# [10] = glyphosate IPA salt (Rodeo) alone, 210 gae/ha
# [11] = glyphosate IPA salt (Durango) alone, 377 gae/ha
structure (smiles),measurement,setting,value
"O=C(O)CNCP(=O)(O)O [Glyphosate isopropylamine salt, N-(phosphonomethyl)glycine, reference compound]",Visual Weed Control (%) - 21 DAA ECHCO Obs,[1]; [7],10%
same,Visual Weed Control (%) - 21 DAA ECHCO Obs,[1]; [8],20%
same,Visual Weed Control (%) - 21 DAA ECHCO Obs,[1]; [9],0%
same,Visual Weed Control (%) - 21 DAA ECHCO Obs,[1]; [10],0%
same,Visual Weed Control (%) - 20 DAA ECHCG Obs,[2]; [11],38%
same,Visual Weed Control (%) - 21 DAA ECHCG Obs,[2]; 124.5 gae/ha,0%
same,Visual Weed Control (%) - 21 DAA ECHCG Obs,[2]; 249 gae/ha,0%
same,Visual Weed Control (%) - 21 DAA SCPMA Obs,[3]; 210 gae/ha,0%
same,Visual Weed Control (%) - 21 DAA SCPMA Obs,[3]; 420 gae/ha,0%
same,Visual Weed Control (%) - 20 DAA DIGSA Obs,[4],10%
same,Visual Weed Control (%) - 20 DAA LEFCH Obs,[5]; [11],88%
same,Visual Weed Control (%) - 21 DAA LEFCH Obs,[5]; [7],0%
same,Visual Weed Control (%) - 21 DAA LEFCH Obs,[5]; [8],45%
same,Visual Weed Control (%) - 21 DAA LEFCH Obs,[5]; [9],25%
same,Visual Weed Control (%) - 21 DAA LEFCH Obs,[5]; [10],75%
same,Visual Weed Control (%) - 21 DAA LEFCH Obs,"[5]; glyphosate IPA salt (Rodeo) alone, 420 gae/ha",90%
same,Visual Weed Control (%) - 21 DAA IPOHE Obs,[6]; 105 gae/ha,15%
same,Visual Weed Control (%) - 21 DAA IPOHE Obs,[6]; 210 gae/ha,25%
same,Visual Weed Control (%) - 21 DAA IPOHE Obs,[6]; 420 gae/ha,55%
